# Laboratory results as given in US4228292A, “N-Substituted benzothiazolines and benzoxazolines and their use as herbicides and plant growth regulants” (Monsanto Company, priority 1978, dated 1980).
# Assays:
# Format in all cases: in vivo
# Hemp Sesbania [1] = experiment: pre-emergent herbicidal test; conditions: R
# Protocol: (§1) The pre-emergent test was conducted as follows:
# (§2) A good grade of top soil was placed in aluminum pans and compactd to a depth of 0.95 to 1.27 cm. from the top of the pan. On the top of the soil was placed a predetermined number of seeds or vegetative propagules of various plant species. The soil required to level fill the pans after seeding or adding vegetative propagules was weighed into a pan. A known amount of the herbicidal active ingredient applied in a solvent or as a wettable powder and the soil were thoroughly mixed, and used as a cover layer for prepared pans. After treatment the pans were moved into a greenhouse bench where they were watered from below as needed to give adequate moisture for germination and growth.
# (§3) A herbicidal rating code was used to signify the extent of phytotoxicity of each species. The ratings are defined as follows: […]
# Sorghum [2] = experiment: pre-emergent herbicidal test; conditions: P
# Protocol: as §1, §2, §3
# Soybean [3] = experiment: pre-emergent herbicidal test; conditions: L
# Protocol: as §1, §2, §3
# Wild Buckwheat [4] = experiment: pre-emergent herbicidal test; conditions: Q
# Protocol: as §1, §2, §3
# Crabgrass [5] = experiment: pre-emergent herbicidal test; conditions: T
# Protocol: as §1, §2, §3
# Panicum Spp [6] = experiment: pre-emergent herbicidal test; conditions: S
# Protocol: as §1, §2, §3
# Rice [7] = experiment: pre-emergent herbicidal test; conditions: O
# Protocol: as §1, §2, §3
# Sugar Beet [8] = experiment: pre-emergent herbicidal test; conditions: M
# Protocol: as §1, §2, §3
# Wheat [9] = experiment: pre-emergent herbicidal test; conditions: N
# Protocol: as §1, §2, §3
# Hemp Sesbania [10] = experiment: post-emergent herbicidal test; conditions: R
# Protocol: (§4) The post-emergent tests were conducted as follows:
# (§5) The herbicidal active ingredients are applied in spray form to two or three-week old specimens of various plant species. The spray, a solution or wettable powder suspension containing the appropriate rate of herbicidal active ingredient to give the desired test rate and a surfactant, is applied to the plants. The treated plants are placed in a greenhouse and approximately two or four weeks later the effects are observed and recorded. The results are shown in Tables IX and X in which the post-emergent herbicidal rating code is as follows: […]
# Sorghum [11] = experiment: post-emergent herbicidal test; conditions: P
# Protocol: as §4, §5
# Soybean [12] = experiment: post-emergent herbicidal test; conditions: L
# Protocol: as §4, §5
# Wild Buckwheat [13] = experiment: post-emergent herbicidal test; conditions: Q
# Protocol: as §4, §5
# Crabgrass [14] = experiment: post-emergent herbicidal test; conditions: T
# Protocol: as §4, §5
# Panicum Spp [15] = experiment: post-emergent herbicidal test; conditions: S
# Protocol: as §4, §5
# Rice [16] = experiment: post-emergent herbicidal test; conditions: O
# Protocol: as §4, §5
# Sugar Beet [17] = experiment: post-emergent herbicidal test; conditions: M
# Protocol: as §4, §5
# Wheat [18] = experiment: post-emergent herbicidal test; conditions: N
# Protocol: as §4, §5
# Note: ranges in brackets are in %.
structure (smiles),measurement,setting,value
CCCOC(=N)Cn1c(=O)sc2ccccc21 [Compound 30],pre-emergent herbicidal rating,"Hemp Sesbania [1]; 0.28 kg/h, 2 WAT",1 (25-49)
same,pre-emergent herbicidal rating,"Hemp Sesbania [1]; 1.12 kg/h, 4 WAT",2 (50-74)
same,pre-emergent herbicidal rating,"Hemp Sesbania [1]; 5.6 kg/h, 4 WAT",3 (75-100)
same,pre-emergent herbicidal rating,"Sorghum [2]; 0.28 kg/h, 2 WAT",0 (0-24)
same,pre-emergent herbicidal rating,"Sorghum [2]; 1.12 kg/h, 4 WAT",0 (0-24)
same,pre-emergent herbicidal rating,"Sorghum [2]; 5.6 kg/h, 4 WAT",0 (0-24)
same,pre-emergent herbicidal rating,"Soybean [3]; 0.28 kg/h, 2 WAT",0 (0-24)
same,pre-emergent herbicidal rating,"Soybean [3]; 1.12 kg/h, 4 WAT",1 (25-49)
same,pre-emergent herbicidal rating,"Soybean [3]; 5.6 kg/h, 4 WAT",3 (75-100)
same,pre-emergent herbicidal rating,"Wild Buckwheat [4]; 0.28 kg/h, 2 WAT",0 (0-24)
same,pre-emergent herbicidal rating,"Wild Buckwheat [4]; 1.12 kg/h, 4 WAT",1 (25-49)
same,pre-emergent herbicidal rating,"Wild Buckwheat [4]; 5.6 kg/h, 4 WAT",2 (50-74)
same,pre-emergent herbicidal rating,"Crabgrass [5]; 0.28 kg/h, 2 WAT",0 (0-24)
same,pre-emergent herbicidal rating,"Crabgrass [5]; 1.12 kg/h, 4 WAT",2 (50-74)
same,pre-emergent herbicidal rating,"Crabgrass [5]; 5.6 kg/h, 4 WAT",3 (75-100)
same,pre-emergent herbicidal rating,"Panicum Spp [6]; 0.28 kg/h, 2 WAT",0 (0-24)
same,pre-emergent herbicidal rating,"Panicum Spp [6]; 1.12 kg/h, 4 WAT",0 (0-24)
same,pre-emergent herbicidal rating,"Panicum Spp [6]; 5.6 kg/h, 4 WAT",0 (0-24)
same,pre-emergent herbicidal rating,"Rice [7]; 0.28 kg/h, 2 WAT",0 (0-24)
same,pre-emergent herbicidal rating,"Rice [7]; 1.12 kg/h, 4 WAT",0 (0-24)
same,pre-emergent herbicidal rating,"Rice [7]; 5.6 kg/h, 4 WAT",1 (25-49)
same,pre-emergent herbicidal rating,"Sugar Beet [8]; 0.28 kg/h, 2 WAT",1 (25-49)
same,pre-emergent herbicidal rating,"Sugar Beet [8]; 1.12 kg/h, 4 WAT",1 (25-49)
same,pre-emergent herbicidal rating,"Sugar Beet [8]; 5.6 kg/h, 4 WAT",3 (75-100)
same,pre-emergent herbicidal rating,"Wheat [9]; 0.28 kg/h, 2 WAT",0 (0-24)
same,pre-emergent herbicidal rating,"Wheat [9]; 1.12 kg/h, 4 WAT",0 (0-24)
same,pre-emergent herbicidal rating,"Wheat [9]; 5.6 kg/h, 4 WAT",1 (25-49)
COC(=N)Cn1c(=O)sc2ccccc21 [Compound 38],post-emergent herbicidal rating,"Hemp Sesbania [10]; 0.28 kg/h, 2 WAT",0 (0-24)
same,post-emergent herbicidal rating,"Hemp Sesbania [10]; 1.12 kg/h, 4 WAT",1 (25-49)
same,post-emergent herbicidal rating,"Sorghum [11]; 0.28 kg/h, 2 WAT",0 (0-24)
same,post-emergent herbicidal rating,"Sorghum [11]; 1.12 kg/h, 4 WAT",0 (0-24)
same,post-emergent herbicidal rating,"Soybean [12]; 0.28 kg/h, 2 WAT",1 (25-49)
same,post-emergent herbicidal rating,"Soybean [12]; 1.12 kg/h, 4 WAT",1 (25-49)
same,post-emergent herbicidal rating,"Wild Buckwheat [13]; 0.28 kg/h, 2 WAT",0 (0-24)
same,post-emergent herbicidal rating,"Wild Buckwheat [13]; 1.12 kg/h, 4 WAT",2 (50-74)
same,post-emergent herbicidal rating,"Crabgrass [14]; 0.28 kg/h, 2 WAT",0 (0-24)
same,post-emergent herbicidal rating,"Crabgrass [14]; 1.12 kg/h, 4 WAT",0 (0-24)
same,post-emergent herbicidal rating,"Panicum Spp [15]; 0.28 kg/h, 2 WAT",0 (0-24)
same,post-emergent herbicidal rating,"Panicum Spp [15]; 1.12 kg/h, 4 WAT",0 (0-24)
same,post-emergent herbicidal rating,"Rice [16]; 0.28 kg/h, 2 WAT",0 (0-24)
same,post-emergent herbicidal rating,"Rice [16]; 1.12 kg/h, 4 WAT",1 (25-49)
same,post-emergent herbicidal rating,"Sugar Beet [17]; 0.28 kg/h, 2 WAT",1 (25-49)
same,post-emergent herbicidal rating,"Sugar Beet [17]; 1.12 kg/h, 4 WAT",2 (50-74)
same,post-emergent herbicidal rating,"Wheat [18]; 0.28 kg/h, 2 WAT",0 (0-24)
same,post-emergent herbicidal rating,"Wheat [18]; 1.12 kg/h, 4 WAT",0 (0-24)
COC(=N)Cn1c(=O)sc2ccccc21 [Compound 11],pre-emergent herbicidal rating,"Hemp Sesbania [1]; 1.12 kg/h, 4 WAT",1 (25-49)
same,pre-emergent herbicidal rating,"Hemp Sesbania [1]; 5.6 kg/h, 4 WAT",3 (75-100)
same,pre-emergent herbicidal rating,"Sorghum [2]; 1.12 kg/h, 4 WAT",0 (0-24)
same,pre-emergent herbicidal rating,"Sorghum [2]; 5.6 kg/h, 4 WAT",0 (0-24)
same,pre-emergent herbicidal rating,"Soybean [3]; 1.12 kg/h, 4 WAT",2 (50-74)
same,pre-emergent herbicidal rating,"Soybean [3]; 5.6 kg/h, 4 WAT",3 (75-100)
same,pre-emergent herbicidal rating,"Wild Buckwheat [4]; 1.12 kg/h, 4 WAT",1 (25-49)
same,pre-emergent herbicidal rating,"Wild Buckwheat [4]; 5.6 kg/h, 4 WAT",3 (75-100)
same,pre-emergent herbicidal rating,"Crabgrass [5]; 1.12 kg/h, 4 WAT",0 (0-24)
same,pre-emergent herbicidal rating,"Crabgrass [5]; 5.6 kg/h, 4 WAT",1 (25-49)
same,pre-emergent herbicidal rating,"Panicum Spp [6]; 1.12 kg/h, 4 WAT",0 (0-24)
same,pre-emergent herbicidal rating,"Panicum Spp [6]; 5.6 kg/h, 4 WAT",2 (50-74)
same,pre-emergent herbicidal rating,"Rice [7]; 1.12 kg/h, 4 WAT",0 (0-24)
same,pre-emergent herbicidal rating,"Rice [7]; 5.6 kg/h, 4 WAT",0 (0-24)
same,pre-emergent herbicidal rating,"Sugar Beet [8]; 1.12 kg/h, 4 WAT",1 (25-49)
same,pre-emergent herbicidal rating,"Sugar Beet [8]; 5.6 kg/h, 4 WAT",2 (50-74)
same,pre-emergent herbicidal rating,"Wheat [9]; 1.12 kg/h, 4 WAT",1 (25-49)
same,pre-emergent herbicidal rating,"Wheat [9]; 5.6 kg/h, 4 WAT",1 (25-49)
same,post-emergent herbicidal rating,"Hemp Sesbania [10]; 1.12 kg/h, 4 WAT",1 (25-49)
same,post-emergent herbicidal rating,"Hemp Sesbania [10]; 5.6 kg/h, 4 WAT",3 (75-99)
same,post-emergent herbicidal rating,"Sorghum [11]; 1.12 kg/h, 4 WAT",0 (0-24)
same,post-emergent herbicidal rating,"Sorghum [11]; 5.6 kg/h, 4 WAT",1 (25-49)
same,post-emergent herbicidal rating,"Soybean [12]; 1.12 kg/h, 4 WAT",1 (25-49)
same,post-emergent herbicidal rating,"Soybean [12]; 5.6 kg/h, 4 WAT",3 (75-99)
same,post-emergent herbicidal rating,"Wild Buckwheat [13]; 1.12 kg/h, 4 WAT",2 (50-74)
same,post-emergent herbicidal rating,"Wild Buckwheat [13]; 5.6 kg/h, 4 WAT",4 (100)
same,post-emergent herbicidal rating,"Crabgrass [14]; 1.12 kg/h, 4 WAT",0 (0-24)
same,post-emergent herbicidal rating,"Crabgrass [14]; 5.6 kg/h, 4 WAT",0 (0-24)
same,post-emergent herbicidal rating,"Panicum Spp [15]; 1.12 kg/h, 4 WAT",0 (0-24)
same,post-emergent herbicidal rating,"Panicum Spp [15]; 5.6 kg/h, 4 WAT",1 (25-49)
same,post-emergent herbicidal rating,"Rice [16]; 1.12 kg/h, 4 WAT",0 (0-24)
same,post-emergent herbicidal rating,"Rice [16]; 5.6 kg/h, 4 WAT",0 (0-24)
same,post-emergent herbicidal rating,"Sugar Beet [17]; 1.12 kg/h, 4 WAT",2 (50-74)
same,post-emergent herbicidal rating,"Sugar Beet [17]; 5.6 kg/h, 4 WAT",4 (100)
same,post-emergent herbicidal rating,"Wheat [18]; 1.12 kg/h, 4 WAT",1 (25-49)
same,post-emergent herbicidal rating,"Wheat [18]; 5.6 kg/h, 4 WAT",1 (25-49)
